Data as given in patent publication US20240252689A1, “POLY-ADP RIBOSE (PAR) TRACKER OPTIMIZED SPLIT-PROTEIN REASSEMBLY PAR DETECTION REAGENTS” (THE BOARD OF REGENTS OF THE UNIVERSITY OF TEXAS SYSTEM, priority 2021, published 2024).

Columns and labels:
PARylation [1] = assay: Live cell imaging of 3D cancer spheroids of MCF7 cells expressing PAR-T ddGFP; format: cell-based; conditions: for distribution of PARylation (PAR) throughout the spheroid: MCF7 3D cancer spheroids
Method: FIGS. 8C and 8D provides representative images (8C) and quantification (8D) of Z-projections of cancer spheroids formed using MCF-7 cells subjected to Dox-induced expression of the PAR-T ddGFP. The spheroids were treated with 20 µM Niraparib and live-cell imaging was performed at the indicated times. (Left) The spheroids were divided into ‘outer’ and ‘core’ sections for quantification as indicated by the white circles. (Right) Enlargement of the indicated areas from the left panels (yellow, core; pink, outer) as indicated.
Cancers are heterogenous tissues with spatial variation in nutrient availability, and stress. Since PARylation is enhanced by stressors such as DNA damage, another experiment tested whether there was any spatial variation in PARylation levels. Live cell imaging was performed in 3D cancer spheroids using MCF7 cells expressing the WWE based PAR-T sensors. […] A time course of Niraparib treatment in 3D cancer spheroids was performed to visualize spatio-temporal changes in PAR levels over time.

PARP-1 activation = assay: Live-cell luminescence assay with PAR-T NanoLuc, UV-induced PARP-1 activation in MDA-MB-231-Luc cells; format: cell-based, human; conditions: for time-dependent, UV-mediated increase in PAR-T NanoLuc signal (PARP-1 activation): time course after UV radiation, 20 μM for 2 hr prior to UV
Method: Each point in the graph represents the mean±SEM of the relative levels of luminescence from PAR-T NanoLuc normalized to full Nano luciferase (n=3).
FIG. 11B provides quantitative analysis of Western blot analysis and bioluminescence imaging (shown in FIG. 4B) of 231-PAR-T NanoLuc cells treated with 20 μM Niraparib or 20 μM PARG inhibitor for 2 hr prior to UV radiation. Each bar in the graph represents the mean±SEM of the relative intensities (n=3, one-way ANOVA, *p<0.05, **p<0.001, and ***p<0.0001; ns=not significant).
(§1) Cells were treated with various inhibitors as described herein. For inhibition of nuclear PARPs, cells were treated with PJ-34 ([…]; Enzo, ALX-270) or Olaparib (20 µM; MedChem Express, HY-10162) for 2 hours. For inhibition of PARG, cells were treated with PDD 00017273 (20 µM; MedChem Express, HY-108360) for 2 hours. For UV-induced DNA damage, the cells were harvested 15 minutes after treatment with 50 mJ/cm2 UV irradiation.
DNA damaging agents such as UV irradiation and y irradiation activate PARP-1 and cause PARylation of itself and other DNA damage repair proteins that are recruited to the damage sites. […] MDA-MB-231-Luc cells were subjected to doxycycline-induced expression of PAR-T, and then treated UV radiation. […] In a similar manner, a time course of UV-mediated PARP-1 activation using live cell luminescence assay with the PAR-T NanoLuc sensor was performed. The MDA-MB-231 cells were subjected to Dox-induced expression of PAR-T NanoLuc or intact Nano luciferase and then exposed the cells to UV radiation.
Next, a set of assays was performed to compare the performance of the PAR-T sensors to conventional PAR detection reagents (WWE-Fc and PAR antibody) in a variety of assays. The following assays were compared (1) Western blotting with WWE-Fc versus fluorescence assay with PAR-T ddGFP, which were performed in conjunction with ARH3-mediated degradation of PAR in vitro (FIG. 11A); (2) Western blotting with WWE-Fc versus live-cell luciferase assay using PAR-T NanoLuc, which were performed in conjunction with UV-induced DNA damage in MDA-MB-231 cells (FIG. 11B); (3) enzyme-linked immunosorbent assay (ELISA) with PAR antibody versus fluorescence assay with PAR-T ddGFP, which were performed using immobilized PAR (FIG. 11C); and (4) immunofluorescence with WWE-Fc versus live-cell imaging using PAR-T ddGFP, which were performed using H2O2-mediated PARP-1 activation in 293T cells (FIG. 11D and FIG. 11E).

PARylation [2] = assay: Recombinant PAR-T sensors incubated with lysates from treated Hela cells; format: cell-based
Method: as §1
Cells were cultured and treated as described above before the preparation of cell extracts. […]
Dimerization-dependent GFP is a genetically encoded sensor that was initially developed to study protein interactions. In this system, a pair of a quenched GFP (ddGFPA) and a non-fluorogenic GFP (ddGFPB) form a heterodimer that can result in improved fluorescence. In this example, a ddGFP-based fluorescence sensor (fluorescent PAR-Trackers or PAR-T) was designed to allow for live cell imaging, with high signal-noise ratio. To achieve this, the various ADPR reader domains (ARBDs) were fused to ddGFP-A/B and purified as recombinant proteins (FIG. 1A, FIG. 1B, FIG. 6A). […] Similarly, degradation of PAR chains by ARH3 was detected in a time (FIG. 1F and FIG. 1G) and dose (FIG. 6H) dependent way. […]

PARylation [3] = assay: PAR-T luminescence in MDA-MB-231-luc xenograft tumors; format: in vivo; conditions: xenograft tumors in mice
Method: In the next experiment, the utility of luminescent PAR-T sensor to measure the levels of PARylation in vivo was tested. Xenograft tumors were established using the MDA-MB-231-luc cells the expression of PAR-T was induced by doxycycline (FIG. 5A). […] The luminescence from PAR-T was normalized to the firefly luminescence to confidently measure the differences in PARylation, while accounting for the variability in tumor sizes.

PAR accumulation = assay: Time course of PAR-T NanoLuc bioluminescence of breast cancer cells injected into mice; format: in vivo, C57/BL6 mice; conditions: 24-hr time course post injection
Excerpt: FIGS. 5D to 5E show analysis of a time course of bioluminescence imaging of 231-PAR-T NanoLuc cells transplanted into mice and treated with PARG inhibitor. Bioluminescence imaging (5D) with the region of interest expanded (5E). Each point in the graph in (5F) represents the mean±SEM of the relative levels of luminescence of NanoLuc of PAR-T NanoLuc (n=4).
PAR accumulation in breast cancer cells injected into C57/BL6 mice without establishing xenograft tumors over a 24-hr time course post injection, with or without PARG inhibitor treatment (FIG. 5D, FIG. 5E and FIG. 5F) was measured. PAR accumulation was readily detected in the breast cancer cells injected into the mice in the absence of treatment.

Row | Compound | distribution of PARylation (PAR) throughout the spheroid (PARylation [1]) | PAR levels in cells at the core versus outer layer of the spheroid (PARylation [1]; time course, 20 µM Niraparib) | decrease in PAR-T NanoLuc signal (PARP-1 activation; UV-treated cells pre-treated with compound, versus basal) | decrease in PAR-T NanoLuc signal (PARP-1 activation; basal (-UV) conditions, 20 μM, 2 hr) [%] | time-dependent, UV-mediated increase in PAR-T NanoLuc signal (PARP-1 activation) (PARP-1 activation) | fluorescence of recombinant PAR-T sensors with cell lysates (PARylation [2]; lysates from cells treated with both H2O2 and PARG inhibitor) | fluorescence of recombinant PAR-T sensors with cell lysates (PARylation [2]; lysates from treated Hela cells) | PAR-T luminescence (PARP-1 activation; UV radiation of treated cells) | PARylation detected by PAR-T luminescence normalized to firefly luminescence (PARylation [3]) | luminescence from PAR-T NanoLuc (PAR accumulation) | distribution of PARylation (PAR) throughout the spheroid (PARylation [1]; WWE based PAR-T sensors, 20 uM Niraparib)
1 | NC(=O)c1cccc2cn(-c3ccc([C@@H]4CCCNC4)cc3)nc12 [Niraparib] | inhibited | relatively resistant | greater | 50 | but not in Niraparib-treated cells | – | – | – | – | – | –
2 | PDD 00017273 [PARG inhibitor] | – | – | – | – | more spontaneous | pronounced increase in fluorescence | increase in fluorescence | enhanced PAR-T luminescence | increase in PARylation | increased significantly by 6 hr and then diminished by 24 hr | –
3 | O=C(c1cc(Cc2n[nH]c(=O)c3ccccc23)ccc1F)N1CCN(C(=O)C2CC2)CC1 [olaparib, Olaparib] | – | – | – | – | – | – | – | – | – | – | inhibited
